target: GCN2 kinase (Homo sapiens (Human), UniProt Q9P2K8); experiment: GCN2 Enzyme Inhibition Assay (Transcreener ADP2 fluorescence polarization); format: biochemical; conditions: 280 μM ATP, 200 μM (RS)7 peptide, 4 nM GCN2, 25° C.
Method in brief: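 At 25 °C, GCN2 kinase (typical final concentration 4 nM) and (RS)7 peptide in Tris-HCl pH 7.5 buffer with MgCl2, NaCl and DTT were preincubated with compound for 10 min, then ATP was added for a 1 h reaction. ADP was read by FP with antibody/Alexa633 tracer. Non-linear tight-binding analysis gave IC50 and apparent Ki.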

GCN2 kinase, sequence (Q9P2K8 whole entry): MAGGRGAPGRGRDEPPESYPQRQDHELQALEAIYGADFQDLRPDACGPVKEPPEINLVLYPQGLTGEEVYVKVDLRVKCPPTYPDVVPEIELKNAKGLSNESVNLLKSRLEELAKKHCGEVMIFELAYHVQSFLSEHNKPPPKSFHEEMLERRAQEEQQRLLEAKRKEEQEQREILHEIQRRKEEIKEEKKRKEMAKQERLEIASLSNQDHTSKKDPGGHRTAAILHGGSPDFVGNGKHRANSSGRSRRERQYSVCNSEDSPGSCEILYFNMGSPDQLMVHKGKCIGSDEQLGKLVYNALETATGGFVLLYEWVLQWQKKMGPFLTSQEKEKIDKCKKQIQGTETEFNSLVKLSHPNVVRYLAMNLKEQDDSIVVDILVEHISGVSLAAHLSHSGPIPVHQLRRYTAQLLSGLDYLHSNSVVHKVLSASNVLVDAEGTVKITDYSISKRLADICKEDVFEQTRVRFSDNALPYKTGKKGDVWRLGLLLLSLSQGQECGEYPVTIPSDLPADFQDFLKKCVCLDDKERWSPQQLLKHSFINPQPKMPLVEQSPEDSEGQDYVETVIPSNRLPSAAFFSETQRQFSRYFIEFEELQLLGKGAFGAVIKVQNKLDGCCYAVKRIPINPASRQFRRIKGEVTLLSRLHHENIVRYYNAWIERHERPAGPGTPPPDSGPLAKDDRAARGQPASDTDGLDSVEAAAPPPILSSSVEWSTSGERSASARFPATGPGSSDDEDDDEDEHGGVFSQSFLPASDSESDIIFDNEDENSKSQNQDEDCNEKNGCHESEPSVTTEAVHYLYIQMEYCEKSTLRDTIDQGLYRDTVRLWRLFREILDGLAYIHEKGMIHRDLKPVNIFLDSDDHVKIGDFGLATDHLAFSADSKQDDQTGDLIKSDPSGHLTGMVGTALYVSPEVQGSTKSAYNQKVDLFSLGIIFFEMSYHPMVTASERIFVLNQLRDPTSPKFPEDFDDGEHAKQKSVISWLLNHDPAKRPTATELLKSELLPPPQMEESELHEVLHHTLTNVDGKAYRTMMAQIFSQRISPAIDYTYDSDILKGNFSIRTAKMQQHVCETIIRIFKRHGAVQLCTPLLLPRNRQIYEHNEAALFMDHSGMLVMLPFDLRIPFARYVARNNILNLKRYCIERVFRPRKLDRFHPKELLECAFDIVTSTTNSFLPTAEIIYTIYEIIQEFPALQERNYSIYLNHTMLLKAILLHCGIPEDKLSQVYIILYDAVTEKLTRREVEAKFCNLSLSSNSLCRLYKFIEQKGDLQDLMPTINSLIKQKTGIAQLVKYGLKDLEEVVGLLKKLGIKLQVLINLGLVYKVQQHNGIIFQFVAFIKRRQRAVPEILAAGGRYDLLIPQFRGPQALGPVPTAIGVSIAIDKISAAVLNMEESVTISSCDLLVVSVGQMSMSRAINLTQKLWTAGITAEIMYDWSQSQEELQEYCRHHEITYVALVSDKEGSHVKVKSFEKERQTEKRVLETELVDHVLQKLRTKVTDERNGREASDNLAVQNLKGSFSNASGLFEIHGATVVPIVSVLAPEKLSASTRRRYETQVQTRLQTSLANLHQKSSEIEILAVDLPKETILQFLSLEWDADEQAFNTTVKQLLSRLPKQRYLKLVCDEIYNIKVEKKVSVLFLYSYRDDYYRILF

Cc1nn(C)cc1[C@@H]1C[C@@H](C)CN(c2nccc(-c3cnc4ccc(C(F)(F)F)cn34)n2)C1 [I-140, 3-(2-((3S,5R)-3-(1,3-dimethyl-1H-pyrazol-4-yl)-5-methylpiperidin-1-yl)pyrimidin-4-yl)-6-(trifluoromethyl)imidazo[1,2-a]pyridine] and Cc1nn(C)cc1[C@@H]1C[C@H](C)CN(c2nccc(-c3cnc4ccc(C(F)(F)F)cn34)n2)C1 [I-141, 3-(2-((3S,5S)-3-(1,3-dimethyl-1H-pyrazol-4-yl)-5-methylpiperidin-1-yl)pyrimidin-4-yl)-6-(trifluoromethyl)imidazo[1,2-a]pyridine] fall in the same range of IC50: 100 to 1000 nM for the first, 100 to 1000 nM for the second.

First: C[C@@H]1C[C@@H](c2cn[nH]c2)CN(c2nccc(-c3cnc4ccc(Cl)cn34)n2)C1 (stereo in doubt) [I-195, 6-chloro-3-(2-((3R,5S)-3-methyl-5-(1H-pyrazol-4-yl)piperidin-1-yl)pyrimidin-4-yl)imidazo[1,2-a]pyridine]
Second: Cc1cnc(N2C[C@H](C)C[C@H](N=S(C)(C)=O)C2)nc1-c1cnc2ccc(Cl)cn12 [I-167, (((3 S,5R)-1-(4-(6-chloroimidazo[1,2-a]pyridin-3-yl)-5-methylpyrimidin-2-yl)-5-methylpiperidin-3-yl)imino)dimethyl-λ6-sulfanone]
The IC50 of the first is lower: 10 to 100 nM for the first, 100 to 1000 nM for the second. The first is the more potent here.

First: Cc1nnc(C)n1[C@H]1C[C@H](C)CN(c2nccc(-c3cnc4ccc(C(F)(F)F)cn34)n2)C1 [I-465, 3-(2-((3S,5S)-3-(3,5-dimethyl-4H-1,2,4-triazol-4-yl)-5-methylpiperidin-1-yl)pyrimidin-4-yl)-6-(trifluoromethyl)imidazo[1,2-a]pyridine]
Second: Cc1nnc(C)n1[C@H]1C[C@@H](C)CN(c2nccc(-c3cnc4ccc(C(F)(F)F)cn34)n2)C1 [I-466, 3-(2-((3S,5R)-3-(3,5-dimethyl-4H-1,2,4-triazol-4-yl)-5-methylpiperidin-1-yl)pyrimidin-4-yl)-6-(trifluoromethyl)imidazo[1,2-a]pyridine]
The IC50 of the first is higher: 100 to 1000 nM for the first, 10 to 100 nM for the second. The second is the more potent here.

Compared with FC(F)(F)c1ccc2ncc(-c3nccc(N4CCN(CC5COC5)C(c5cn[nH]c5)C4)n3)n2c1 (centres unmarked) [I-374, 3-(4-(4-(oxetan-3-ylmethyl)-3-(1H-pyrazol-4-yl)piperazin-1-yl)pyrimidin-2-yl)-6-(trifluoromethyl)imidazo[1,2-a]pyridine], O=C([C@H]1C[C@H]1F)N1CCN(c2ccnc(-c3cnc4ccc(C(F)(F)F)cn34)n2)CC1c1cn[nH]c1 (stereo in doubt) [I-489, (2-(1H-pyrazol-4-yl)-4-(2-(6-(trifluoromethyl)imidazo[1,2-a]pyridin-3-yl)pyrimidin-4-yl)piperazin-1-yl)((1R,2R)-2-fluorocyclopropyl)methanone] is higher in IC50: < 10 nM for the first, 10 to 100 nM for the second.

First: NC(=O)C1CC(F)CN(c2ccnc(-c3cnc4ccc(C(F)(F)F)cn34)n2)C1 (centres unmarked) [I-229, 5-fluoro-1-(2-(6-(trifluoromethyl)imidazo[1,2-a]pyridin-3-yl)pyrimidin-4-yl)piperidine-3-carboxamide]
Second: NC(=O)CC1CN(c2ccnc(-c3cnc4ccc(C(F)(F)F)cn34)n2)C1 [I-230, 2-(1-(2-(6-(trifluoromethyl)imidazo[1,2-a]pyridin-3-yl)pyrimidin-4-yl)azetidin-3-yl)acetamide]
The IC50 of the first is lower: < 10 nM for the first, 10 to 100 nM for the second. The first is the more potent here.

First: Cc1noc(C)c1C(=O)N1CCN(c2ccnc(-c3cnc4ccc(C(F)(F)F)cn34)n2)CC1c1cn[nH]c1 (centres unmarked) [I-519, (2-(1H-pyrazol-4-yl)-4-(2-(6-(trifluoromethyl)imidazo[1,2-a]pyridin-3-yl)pyrimidin-4-yl)piperazin-1-yl)(3,5-dimethylisoxazol-4-yl)methanone]
Second: Cc1nonc1C(=O)N1CCN(c2ccnc(-c3cnc4ccc(C(F)(F)F)cn34)n2)CC1c1cn[nH]c1 (centres unmarked) [I-518, (2-(1H-pyrazol-4-yl)-4-(2-(6-(trifluoromethyl)imidazo[1,2-a]pyridin-3-yl)pyrimidin-4-yl)piperazin-1-yl)(4-methyl-1,2,5-oxadiazol-3-yl)methanone]
The IC50 of the first is higher: 100 to 1000 nM for the first, 10 to 100 nM for the second.

First: CC(=O)NC1CCCN(c2ccnc(-c3cnc4ccc(C(F)(F)F)cn34)n2)C1 (centres unmarked) [I-187, N-(1-(2-(6-(trifluoromethyl)imidazo[1,2-a]pyridin-3-yl)pyrimidin-4-yl)piperidin-3-yl)acetamide]
Second: O=C(C1CCCN(c2ccnc(-c3cnc4ccc(C(F)(F)F)cn34)n2)C1)N1CCCC1 (centres unmarked) [I-131, pyrrolidin-1-yl(1-(2-(6-(trifluoromethyl)imidazo[1,2-a]pyridin-3-yl)pyrimidin-4-yl)piperidin-3-yl)methanone]
The IC50 of the first is lower: 10 to 100 nM for the first, 100 to 1000 nM for the second.

First: Cc1nn(C)cc1C(=O)N1CCN(c2ccnc(-c3cnc4ccc(C(F)(F)F)cn34)n2)C[C@H]1C [I-479, (R)-(1,3-dimethyl-1H-pyrazol-4-yl)(2-methyl-4-(2-(6-(trifluoromethyl)imidazo[1,2-a]pyridin-3-yl)pyrimidin-4-yl)piperazin-1-yl)methanone]
Second: N#CC1(C(=O)N2CCN(c3ccnc(-c4cnc5ccc(C(F)(F)F)cn45)n3)CC2c2cn[nH]c2)CC1 (centres unmarked) [I-432, 1-(2-(1H-pyrazol-4-yl)-4-(2-(6-(trifluoromethyl)imidazo[1,2-a]pyridin-3-yl)pyrimidin-4-yl)piperazine-1-carbonyl)cyclopropane-1-carbonitrile]
The IC50 of the first is higher: 100 to 1000 nM for the first, 10 to 100 nM for the second. The second is the more potent here.

Compared with NC(=O)[C@@H]1CCCN(c2nccc(-c3cnc4ccc(C(F)(F)F)cn34)n2)C1 [I-152, (R)-1-(4-(6-(trifluoromethyl)imidazo[1,2-a]pyridin-3-yl)pyrimidin-2-yl)piperidine-3-carboxamide], O=C(O)C1(O)CCCN(c2ccnc(-c3cnc4ccc(C(F)(F)F)cn34)n2)C1 (centres unmarked) [I-214, 3-hydroxy-1-(2-(6-(trifluoromethyl)imidazo[1,2-a]pyridin-3-yl)pyrimidin-4-yl)piperidine-3-carboxylic acid] is higher in IC50: 10 to 100 nM for the first, 100 to 1000 nM for the second.

Compared with Fc1ccccc1CN1CCN(c2ccnc(-c3cnc4ccc(C(F)(F)F)cn34)n2)CC1c1cn[nH]c1 (centres unmarked) [I-459, 3-(4-(4-(2-fluorobenzyl)-3-(1H-pyrazol-4-yl)piperazin-1-yl)pyrimidin-2-yl)-6-(trifluoromethyl)imidazo[1,2-a]pyridine], O=C1CCC[C@@H](C(=O)N2CCN(c3ccnc(-c4cnc5ccc(C(F)(F)F)cn45)n3)C[C@@H]2c2cn[nH]c2)N1 [I-474, (S)-6-((S)-2-(1H-pyrazol-4-yl)-4-(2-(6-(trifluoromethyl)imidazo[1,2-a]pyridin-3-yl)pyrimidin-4-yl)piperazine-1-carbonyl)piperidin-2-one] is higher in IC50: < 10 nM for the first, 100 to 1000 nM for the second. The first is the more potent here.

First: CC1C(C(N)=O)NCCN1c1ccnc(-c2cnc3ccc(Cl)cn23)n1 (centres unmarked) [I-451, 4-(2-{6-chloroimidazo[1,2-a]pyridin-3-yl}pyrimidin-4-yl)-3-methylpiperazine-2-carboxamide]
Second: C[C@@H]1[C@H](C(N)=O)NCCN1c1ccnc(-c2cnc3ccc(C(F)(F)F)cn23)n1 [I-434, (2R,3R)-3-methyl-4-(2-(6-(trifluoromethyl)imidazo[1,2-a]pyridin-3-yl)pyrimidin-4-yl)piperazine-2-carboxamide]
The IC50 of the first is lower: 10 to 100 nM for the first, 100 to 1000 nM for the second. The first is the more potent here.

N[C@H]1C[C@H](O)CN(c2ccnc(-c3cnc4ccc(C(F)(F)F)cn34)n2)C1 [I-239, (3 S,5S)-5-amino-1-(2-(6-(trifluoromethyl)imidazo[1,2-a]pyridin-3-yl)pyrimidin-4-yl)piperidin-3-ol] and C[C@@H]1CN(c2ccnc(-c3cnc4ccc(C(F)(F)F)cn34)n2)C[C@H](C)N1CC1CCOCC1 [I-462, 3-(4-(cis-3,5-dimethyl-4-((tetrahydro-2H-pyran-4-yl)methyl)piperazin-1-yl)pyrimidin-2-yl)-6-(trifluoromethyl)imidazo[1,2-a]pyridine] fall in the same range of IC50: 100 to 1000 nM for the first, 100 to 1000 nM for the second.

First: C[C@H]1CN(c2nccc(-c3cnc4ccc(C(F)(F)F)cn34)n2)C[C@@H](c2nn[nH]n2)O1 [I-189, (2S,6S)-2-methyl-6-(2H-tetrazol-5-yl)-4-(4-(6-(trifluoromethyl)imidazo[1,2-a]pyridin-3-yl)pyrimidin-2-yl)morpholine]
Second: C[C@H]1[C@H](c2cn[nH]c2)NCCN1c1ccnc(-c2cnc3ccc(C(F)(F)F)cn23)n1 [I-535, 3-(4-((2S,3 S)-2-methyl-3-(1H-pyrazol-4-yl)piperazin-1-yl)pyrimidin-2-yl)-6-(trifluoromethyl)imidazo[1,2-a]pyridine]
The IC50 of the first is lower: 10 to 100 nM for the first, 100 to 1000 nM for the second. The first is the more potent here.

First: Cc1cc(-c2cnc3ccc(Cl)cn23)nc(N2C[C@H](C)C[C@H](N=S(C)(C)=O)C2)n1 [I-168, (((3 S,5R)-1-(4-(6-chloroimidazo[1,2-a]pyridin-3-yl)-6-methylpyrimidin-2-yl)-5-methylpiperidin-3-yl)imino)dimethyl-λ6-sulfanone]
Second: CN(C)C(=O)COCC1CN(c2ccnc(-c3cnc4ccc(C(F)(F)F)cn34)n2)CC(C)(C)O1 (centres unmarked) [I-305, 2-((6,6-dimethyl-4-(2-(6-(trifluoromethyl)imidazo[1,2-a]pyridin-3-yl)pyrimidin-4-yl)morpholin-2-yl)methoxy)-N,N-dimethylacetamide]
The IC50 of the first is lower: 10 to 100 nM for the first, 100 to 1000 nM for the second.

same assay, conditions: Ki(app); 280 μM ATP, 200 μM (RS)7 peptide, 4 nM GCN2, 25° C.

Compared with Clc1ccc2ncc(-c3nccc(N4CCCC(c5cn[nH]c5)C4)n3)n2c1 (centres unmarked) [I-100, 2-{6-chloroimidazo[1,2-a]pyridin-3-yl}-4-[3-(1H-pyrazol-4-yl)piperidin-1-yl]pyrimidine], CS(C)(=O)=NC1CCCN(c2ccnc(-c3cnc4ccc(Cl)cn34)n2)C1 (centres unmarked) [I-30, ((1-(2-(6-Chloroimidazo[1,2-a]pyridin-3-yl)pyrimidin-4-yl)piperidin-3-yl)imino)dimethyl-λ^6-sulfanone] is higher in Ki: < 10 nM for the first, 100 to 1000 nM for the second. The first binds more tightly here.

First: O=C1OCC2CN(c3ccnc(-c4cnc5ccc(Cl)cn45)n3)CCN12 (centres unmarked) [I-99, 7-(2-{6-chloroimidazo[1,2-a]pyridin-3-yl}pyrimidin-4-yl)-hexahydro-1H-[1,3]oxazolo[3,4-a]pyrazin-3-one]
Second: CC1CC(C(N)=O)C(C)N(c2ccnc(-c3cnc4cc(F)c(Cl)cn34)n2)C1 (centres unmarked) [I-52, 1-[2-(6-Chloro-7-fluoro-imidazo[1,2-a]pyridin-3-yl)pyrimidin-4-yl]-2,5-dimethyl-piperidine-3-carboxamide]
The Ki of the first is higher: 10 to 100 nM for the first, < 10 nM for the second. The second binds more tightly here.

Source: patent publication US10793563B2, “GCN2 inhibitors and uses thereof” (Merck Patent GmbH, priority 2018, dated 2020)
